The values that follow come from patent US10787448B2, “Indolizino [3,2-C] quinoline-based fluorescent probe” (SEOUL NATIONAL UNIVERSITY R & DB FOUNDATION, priority 2015, dated 2020).

Entries after “also recorded” stand apart in the source; their conditions may differ.

One data set relates to HeLa cells. Briefly: Cell permeability: fluorescence imaging and live cell confocal imaging. In kind it is cell-based. The settings on record: HeLa cells. The procedure: HeLa cells were seeded in a 96-well plate and incubated for 24 hours. The cells were treated with the indolizino[3,2-c]quinoline compounds, and incubated at 37° C. under a 5% CO2 condition for 30 minutes. After removal of the medium, the cells were washed with 1×DPBS. The washed cells were fixed with 4% formaldehyde at room temperature for 10 minutes, and washed with 1×DPBS. A cell image was screened using an Operetta HTS imaging system (PerkinElmer).
After HeLa cells were seeded to account for 70 to 80% of the area of a confocal dish (SPL life science) and overnight cultured, the indolizino[3,2-c]quinoline compounds (10 μM) prepared by mixing fresh DMEM after removal of the existing DMEM medium were dispensed, and the cells were incubated for 30 minutes to 1 hour at 37° C. Afterward, if needed, LysoTracker (50 nM) was mixed with DMEM to remove the existing medium and then dispensed to the cells, and the cells were incubated for 30 minutes at 37° C. After incubation, without washing, the cells were examined by a confocal laser microscope (Leica TCS SP8 SMD, Leica, Mannheim, Germany). However, when co-stained with a LysoTracker, the cells were washed with DPBS twice before the microscopy. […]

Data set [1] can be described thus: Analysis of optical characteristics (absorption, fluorescence emission, quantum yield) in solvents. It counts as physicochemical. The conditions noted are these: for Fluorescence Emission Intensity / Peak emission wavelength λmax em(nm) / Relative fluorescence Emission Intensitynorm: H2O at 2 μM; for Peak emission wavelength λmax em(nm): excited at the longest absorption maxima; for Relative fluorescence Emission Intensitynorm: normalized fluorescence intensity; for Fluorescence quantum yield (Φ): Rhodamine 6G as a standard (Φ = 0.86 in water). The gist of the method: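 Optical properties of indolizinoquinoline compounds were examined in solvents. A 10 mM DMSO stock was diluted into the solvent, and fluorescence emission spectra were recorded at 20° C. on a JASCO FP-6500 spectrofluorometer. Absorption spectra were taken at room temperature on a Perkin Elmer Lamda 20 UV/VIS spectrometer. Fluorescence quantum yield (Φ) was determined.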

Data set [2] can be described thus: Photostability of fluorescence in aqueous solution or ethanol (natural light, blue light). In kind it is physicochemical. The conditions noted are these: aqueous solution. The procedure: As a candidate material that can be applied to a fluorescent probe, to confirm how long fluorescence persists in materials with high fluorescence intensity in an aqueous solution among the indolizino[3,2-c]quinoline compounds, photostability according to time in an aqueous solution or ethanol solvent was evaluated as follows.
First, fluorescence of a corresponding material was measured using a cuvette, and the fluorescence per time for the cuvette sample was remeasured until 6 to 7 hours in a natural light state so as to confirm fluorescence stability.
Further, from the above example, when the indolizino[3,2-c]quinoline compounds including the IQ 3, 4, 6 and 8 compounds in which the fluorescence is stably maintained in an aqueous solution for approximately 6 hours are represented by Formula X, some materials in which neither A, B, C nor D ring has a substituent were selected and irradiated with blue light in an aqueous solution, and then a stability experiment was carried out to confirm the maintenance of the fluorescence.

In a further data set the test system is cells. Put plainly: Co-staining / co-localization with DAPI, MitoTracker or LysoTracker. It counts as cell-based. The conditions noted are these: for organelle selectivity by co-localization: MitoTracker or LysoTracker.
Data set [3] deals with Human Serum Albumin (HSA) (Homo sapiens, UniProt P02768). Put plainly: Protein binding by fluorescence change (FRET, Job's plot, titration, quantum yield). The procedure: Using a fluorescence spectrophotometer, it was confirmed whether the indolizino[3,2-c]quinoline compound of the present invention binds to a protein. Specifically, among the indolizino[3,2-c]quinoline compounds, 13 types of compounds with high fluorescence in a Tris buffer (pH 7.5) were added to Bovine Serum Albumin (BSA) and Human Serum Albumin (HSA) to observe a fluorescence change.

Data set [4] has as its system DNA oligomers (48 bp) tetO sequences. Put plainly: Binding to DNA by fluorescence spectrophotometer. The settings on record: hybridized tetO DNA oligomers added, 1 minute incubation. The procedure: Using a fluorescence spectrophotometer, it was confirmed whether the indolizino[3,2-c]quinoline compound of the present invention binds to DNA. First, DNA oligomers (48 bp) used in the experiment are tetO sequences, and the base sequences thereof are as follows.
The same molarities of oligomers were mixed while being heated at 95° C. for 5 minutes and cooled to room temperature for 2 hours to hybridize, the fluorescence of each of the indolizino[3,2-c]quinoline compounds of the present invention was measured, a corresponding equivalent of DNA oligomer was added to a cuvette, and then incubated while blocking light for 1 minute to measure fluorescence again.

The target in data set [5] is T1, PDEδ (Homo sapiens, UniProt O43924).
T1 construct: made in house; host or cells: E. coli
Put plainly: Titration using fluorescence polarization. It counts as binding. The conditions noted are these: Table 9.

Data set [6] addresses T1, PDEδ. Put plainly: Titration using fluorescence polarization. The conditions noted are these: 0.5 μM compound, PDEδ protein from 0 to 32 μM. It counts as binding. The procedure:
To confirm whether the indolizino[3,2-c]quinoline compound can bind to a specific intracellular protein, in the presence of 0.5 μM of the indolizino[3,2-c]quinoline compound, titration was performed by increasing the concentration of the PDEδ protein from 0 to 32 μM to measure a polarization degree.

T1 sequence (O43924 whole entry): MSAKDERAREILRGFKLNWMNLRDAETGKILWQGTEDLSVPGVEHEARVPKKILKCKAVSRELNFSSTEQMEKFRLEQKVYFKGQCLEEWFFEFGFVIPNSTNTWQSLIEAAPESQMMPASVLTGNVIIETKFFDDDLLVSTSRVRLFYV
Sequence of Human Serum Albumin (HSA) (P02768 25-609): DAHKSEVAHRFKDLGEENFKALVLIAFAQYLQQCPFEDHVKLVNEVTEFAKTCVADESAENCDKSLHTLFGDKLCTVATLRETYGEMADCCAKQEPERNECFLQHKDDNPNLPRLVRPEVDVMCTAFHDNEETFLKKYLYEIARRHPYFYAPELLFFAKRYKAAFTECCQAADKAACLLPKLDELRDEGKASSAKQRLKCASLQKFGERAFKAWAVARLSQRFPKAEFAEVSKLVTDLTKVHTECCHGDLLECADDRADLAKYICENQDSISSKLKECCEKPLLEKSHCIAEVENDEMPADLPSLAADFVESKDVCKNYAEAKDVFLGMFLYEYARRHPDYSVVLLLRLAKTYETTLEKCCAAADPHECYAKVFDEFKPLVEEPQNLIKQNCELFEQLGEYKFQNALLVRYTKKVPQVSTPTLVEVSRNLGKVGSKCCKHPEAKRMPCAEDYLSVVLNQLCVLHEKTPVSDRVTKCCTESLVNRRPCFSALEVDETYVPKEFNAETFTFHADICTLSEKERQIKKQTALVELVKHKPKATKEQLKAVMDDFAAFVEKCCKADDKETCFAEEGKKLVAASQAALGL

On to `COc1ccc(-c2nc3ccccc3c3cc4ccccn4c23)cc1` [IQ 6, 6-(4-methoxyphenyl)indolizino[3,2-c]quinoline], for which, in the data set on HeLa cells, the intracellular molecule recognized result is “recognized intracellular RNA”; the “intracellular organelles in which fluorescence is detected” value (“intracellular organelles” below) was “intensively distributed in cytoplasmic and nucleolus areas”. Moreover, the “solvent-dependent (environment-sensitive) tendency of the emission” value in data set [1] was “solvatochromic effect”. Also, the “peak emission (λmax)” value in data set [1] (ethanol solvent (EtOH)) is on record as 511 nm. This compound displayed a quantum yield in data set [1] (in ethanol using coumarin 153 as a standard) of 0.816. Also, the “stability of fluorescence under irradiation with blue light” value in data set [2] (blue light for 2 hours) is listed as “still stably exhibited fluorescence intensity”. Further, the “photostability: fluorescence over time” value in data set [2] (natural light, up to 6 hours) is given as “stably maintained in an aqueous solution up to 6 hours with almost no change”. Moreover, the “staining pattern compared with conventional dyes” value in the data set with cells is “an aspect similar to RNA select for staining RNA”.
In the case of `COc1cc(OC)cc(-c2nc3ccccc3c3cc4c(C)cccn4c23)c1` [IQ 16, 6-(3,5-dimethoxyphenyl)-11-methylindolizino[3,2-c]quinoline], the “fluorescence change on binding to HSA” value in data set [3] is on record as “increasing fluorescence intensity”. Also, in the data set on HeLa cells, the intracellular molecule recognized result was “recognized DNA” and the “intracellular organelles” value is “stained intensively in the nuclear area”. In addition, the “staining pattern compared with conventional dyes” value in the data set on cells is “staining almost similar to DAPI”.
For the compound `Cc1cccn2c1cc1c3ccccc3nc(-c3ccco3)c12` [IQ 18, 6-(furan-2-yl)-11-methylindolizino[3,2-c]quinoline], the “intracellular organelles” value in the data set with HeLa cells was “distributed in the mitochondria”. Further, in data set [4], the “change in fluorescence intensity on addition of DNA oligomer” value (“change in fluorescence intensity” below) was “gradually decreased” and the “shift of maximum emission wavelength on addition of DNA oligomer” value (“shift of maximum emission wavelength” below) is recorded as “shorter wavelength”. Moreover, in the data set on cells, the “fluorescence change on light irradiation” value is given as “increasing fluorescence by receiving light; also recorded: fluorescence is increased” and the “organelle selectivity by co-localization” value was “selectively stains the mitochondria”. For the same compound, the “Pearson's coefficient” value with cells (co-localization experiment with MitoTracker) is on record as at least 0.8.
For `COc1ccc(-c2nc3ccccc3c3cc4cc(/C=C/c5ccccc5)ccn4c23)cc1` [IQ-B19, (E)-6-(4-methoxyphenyl)-10-styrylindolizino[3,2-c]quinoline], in data set [1], the “fluorescence (intensity, in words)” value is on record as “high fluorescence in other solvents as well as an aqueous solution”. The “organelle selectivity by co-localization” value with cells is listed as “selectively present in the lysosome”.
On to `Brc1ccc(-c2nc3ccccc3c3cc4ccccn4c23)cc1` [compound 1], for which, at PDEδ [5], the “kmax em(nm)” value worked out at 530 nm and the “λabs(nm)” value amounted to 430 nm. Besides, in data set [1], the “Maximum absorption wavelength λmax abs(nm)” value was found to be 400 nm, the “Fluorescence Emission Intensity” value came out at 32.7, the “Peak emission wavelength λmax em(nm)” value came to 522 nm and the “Relative fluorescence Emission Intensitynorm” value amounted to 0.14. The “quantum yield (Φ)” value in data set [1] (DW, standard Rhodamine 6G) worked out at 0.015. In data set [1] (EtOH, standard Coumarin 153), the “quantum yield (Φ)” value is listed as 0.636. At PDEδ [6], this compound returned a Kd of 0.284 µM.
Consider `Cc1ccc(-c2nc3ccccc3c3cc4ccccn4c23)cc1` [compound 3], for which, at PDEδ [5], the “kmax em(nm)” value came to 526 nm and the “λabs(nm)” value is listed as 440 nm. Besides, the “quantum yield (Φ)” value in data set [1] (DW, standard Rhodamine 6G) was 0.068. The “quantum yield (Φ)” value in data set [1] (EtOH, standard Coumarin 153) was 0.839. In data set [1], the “Fluorescence Emission Intensity” value was 59.7, the “Peak emission wavelength λmax em(nm)” value is reported as 519 nm and the “Relative fluorescence Emission Intensitynorm” value came to 0.26. Also, the “change in fluorescence intensity” value in data set [4] was “Decrease in fluorescence intensity”. The Kd at PDEδ [6] was 0.491 µM.
`c1ccc(-c2nc3ccccc3c3cc4ccccn4c23)cc1` [compound 4]: at PDEδ [5], the “kmax em(nm)” value is 515 nm and the “λabs(nm)” value was 430 nm. In addition, the “quantum yield (Φ)” value in data set [1] (DW, standard Rhodamine 6G) is reported as 0.039. In addition, the “quantum yield (Φ)” value in data set [1] (EtOH, standard Coumarin 153) worked out at 0.779. Also, in data set [1], the “Fluorescence Emission Intensity” value was 55.0, the “Peak emission wavelength λmax em(nm)” value was 519 nm and the “Relative fluorescence Emission Intensitynorm” value is listed as 0.24. Besides, in data set [4], the “change in fluorescence intensity” value is “Decrease in fluorescence intensity”. This compound gave a Kd at PDEδ [6] of 0.505 µM.
With `COc1ccc(-c2nc3ccccc3c3cc4ccccn4c23)cc1` [compound 6], at PDEδ [5], the “kmax em(nm)” value turned out to be 515 nm and the “λabs(nm)” value was 430 nm. Also, in data set [1], the “Absorption coefficient (cm^−1M^−1)” value came out at 6547 cm^−1M^−1, the “Absorption wavelength λex(nm)” value turned out to be 430 nm, the “Emission wavelength λem(nm)” value was determined as 515 nm and the “Maximum absorption wavelength λmax abs(nm)” value stood at 430 nm. Moreover, in data set [1], the “Fluorescence Emission Intensity” value worked out at 231.3, the “Peak emission wavelength λmax em(nm)” value was determined as 514.5 nm, the “Fluorescence quantum yield (Φ)” value is listed as 0.121 and the “Relative fluorescence Emission Intensitynorm” value came out at 0.99. In addition, the “λem (nm)” value in data set [1] (DMF) is on record as 469 nm. The “λem (nm)” value in data set [1] (DMSO) is on record as 512 nm. Also, the “λem (nm)” value in data set [1] (EtOH) turned out to be 465 nm. For the same compound, in data set [1] (EtOH:CHCl3 = 1:5), the “λem (nm)” value was 466 nm. For the same compound, the “λem (nm)” value in data set [1] (H2O) was 511 nm. Besides, the “λem (nm)” value in data set [1] (MC) stood at 467 nm. Also, the “shift of maximum emission wavelength” value in data set [4] is reported as “wavelength to longer wavelength”. At PDEδ [6], binding was characterised by a dissociation constant (Kd) of 0.729 µM.
Regarding `COc1ccc(-c2nc3ccccc3c3cc4ccccn4c23)cc1OC` [compound 8], on PDEδ [5], the “kmax em(nm)” value is on record as 515 nm and the “λabs(nm)” value is recorded as 430 nm. For the same compound, in data set [1] (DW, standard Rhodamine 6G), the “quantum yield (Φ)” value is 0.102. Further, in data set [1] (EtOH, standard Coumarin 153), the “quantum yield (Φ)” value is on record as 0.652. Moreover, in data set [1], the “Fluorescence Emission Intensity” value was 171.3, the “Peak emission wavelength λmax em(nm)” value is 513 nm and the “Relative fluorescence Emission Intensitynorm” value amounted to 0.74. Moreover, the “shift of maximum emission wavelength” value in data set [4] was “wavelength to longer wavelength”. For the same compound, the affinity on PDEδ [6], expressed as Kd, was 1.28 µM.
For `c1ccc2c(-c3nc4ccccc4c4cc5ccccn5c34)cccc2c1` [compound 9], at PDEδ [5], the “kmax em(nm)” value is on record as 515 nm and the “λabs(nm)” value is recorded as 430 nm. Further, in data set [1], the “Absorption coefficient (cm^−1M^−1)” value was found to be 11656 cm^−1M^−1, the “Absorption wavelength λex(nm)” value is on record as 405 nm, the “Emission wavelength λem(nm)” value came out at 515 nm and the “Fluorescence Emission Intensity” value turned out to be 232.9. In data set [1], the “Peak emission wavelength λmax em(nm)” value was 514 nm, the “Fluorescence quantum yield (Φ)” value turned out to be 0.053 and the “Relative fluorescence Emission Intensitynorm” value was found to be 1.00. Moreover, in data set [1] (DMF), the “λem (nm)” value worked out at 478 nm. For the same compound, the “λem (nm)” value in data set [1] (DMSO) was determined as 514 nm. Moreover, in data set [1] (EtOH), the “λem (nm)” value was 465.5 nm. In addition, the “λem (nm)” value in data set [1] (EtOH:CHCl3 = 1:5) is recorded as 467.5 nm. For the same compound, the “λem (nm)” value in data set [1] (H2O) came out at 516 nm. Further, in data set [1] (MC), the “λem (nm)” value turned out to be 469 nm. Moreover, the Kd on PDEδ [6] came to 1.54 µM.
Compound `c1coc(-c2nc3ccccc3c3cc4ccccn4c23)c1` [compound 42] registered a Kd on PDEδ [6] of 0.425 µM. In other words, the sub-micromolar range.
